The assay relates to SRS-A release from lung fragments. Description: Inhibition of SRS-A release from sensitized guinea pig lung fragments. In kind it is cell-based, guinea pig (Hartley strain). Conditions: Cavia porcellus. The protocol:
Inhibitory activities on the release of SRS-A and histamine of the present compounds were determined.
A male guinea pig (Hartley strain) (body weight: about 300 g) was sensitized by a method according to P. Anderson: "Int. Archs. Allergey appln. Immunol., Vol. 64, pages 249-258 (1981). Thus, 30 mg/kg of cyclophosphamide was intraperitoneally administered to the guinea pig, and 2 days after 1 microgram of ovalbumin (manufactured by Sigma Chemical Co., St. Louis, Mo. U. S. A.) together with 10 mg of aluminium hydroxide gel were intraperitoneally administered so as to have the animal sesitized.
50 Days after the sesitization, the animal was killed by exsanguination, and the lung was isolated from the animal and was perfused with 20 ml of Tyrode's solution, then immersed in an ice-cooled Tyrode's solution. The parenchyma of the lung was cut by using McIlwain-type tissue chopper to make it into fragments of lung having 2 mm square and the fragments were washed with Tyrode's solution. 400 Milligrams of sectiles of lung were suspended in 3.6 ml of Tyrode's solution, and this suspension was preincubated at 37° C. for 5 minutes, then 4 microliters of dimethyl sulfoxide solution of the test compound, in the case of control 4 microliters of dimethyl sulfoxide alone was added to the suspension. 5 Minutes after, 0.4 ml of 100 micrograms/ml of ovalbumin solution added so as to release SRS-A for 10 minutes. The suspension was ice-cooled and filtered through gauze, the filtrate was centrifuged at 2,000 rpm for 10 minutes and the supernatant was collected. The supernatant was stored in freezed state at -80° C. until bio-assay was conducted.
Amounts of SRS-A and histamine contained in the supernatant were determined by bio-assay using ileum of guinea pig.
A piece of the ileum (2-3 cm of length) positioned from 15-25 cm from the opening portion of ileocecum was isolated from a male guinea pig (Hartley strain) (body weight: 400-600 g) which was fasted for 24 hours. The piece of ileum was hanged vertically in a Magnus tube which was filled with 10 ml of Tyrode's solution containing 10^-7 M of atropine sulfate under air stream conditions. The isotonic contraction of the piece of the ileum was measured at 0.5 g of load by using an isotonic transducer "TD-112S" (manufactured by Nihon Koden Co., Ltd.). The measurements were carried out after the reaction to histamine of the piece of ileum was kept constant. Bioassay of histamine was measured by using the value of contraction shown in 30 seconds after the addition of the supernatant. Bioassay of on SRS-A was measured by using the value of contraction shown at 2 minutes after the addition of the supernatant in the presence of 10^-6 M of pyrilamine (manufactured by Sigma Chemical Co.), and compared with the standard curve of crude SRS-A released from the fragments of the lung.

Setting [1] is: Table 2, dose 3 μM, read-out: Inhibition ratio (%) SRS-A.
[2] abbreviates: Table 2, dose 30 μM, read-out: Inhibition ratio (%) SRS-A.
The mark [3] stands for this setting: Table 2B, 3 μM, read-out: Inhibitory activities on SRS-A (%).
Setting [4] is: Table 2B, 30 μM, read-out: Inhibitory activities on SRS-A (%).
[5] abbreviates: Table 2B, read-out: Inhibitory activities on SRS-A (%).

SMILES strings stand for the structures. Like-named read-outs stand apart in the source and are kept apart here.

Regarding `COC1=CC(=O)C(OC)=C(CCCCCCCC#CCCCCCCCC2=C(OC)C(=O)C=C(OC)C2=O)C1=O` [Test Compound No. 20, 2,2'-(8-Hexadecynylene)bis(3,6-dimethoxy-1,4-benzoquinone)], the inhibition at 3 µM by setting is: under setting [1], 14.5%; under setting [3], 14.5%. The inhibition at 30 µM was found to be 24.1% under setting [2] and 24.1% under setting [4].

As for `COC1=CC(=O)C(OC)=C(CCCCCCCCCC#CCCCCCCCCCC2=C(OC)C(=O)C=C(OC)C2=O)C1=O` [Test Compound No. 21, 2,2'-(10-Eicosynylene)bis(3,6-dimethoxy-1,4-benzoquinone)], the inhibition at 3 µM reads like this: under setting [1], -21.7%; under setting [3], -21.7%. Further, the inhibition at 30 µM was 16.6% under setting [2] and 16.6% under setting [4].

Turning to `COC1=CC(=O)C(OC)=C(CCC2=C(OC)C(=O)C=C(OC)C2=O)C1=O` [Test Compound No. 23, 2,2'-Ethylenebis(3,6-dimethoxy-1,4-benzoquinone)], the inhibition at 30 µM under setting [4] came out at 28.6%.

For `COC1=CC(=O)C(OC)=C(CCCCC2=C(OC)C(=O)C=C(OC)C2=O)C1=O` [Test Compound No. 24, 2,2'-Tetramethylenebis(3,6-dimethoxy-1,4-benzoquinone)], under setting [5], the inhibition at 1 µM worked out at 36.1% and the inhibition at 10 µM amounted to 67.7%.

Regarding `COC1=CC(=O)C(OC)=C(CCCOCCC2=C(OC)C(=O)C=C(OC)C2=O)C1=O` [Test Compound No. 25, 2-(3,6-Dimethoxy-1,4-benzoquinon-2-yl)ethyl 3-(3,6-dimethoxy-1,4-benzoquinon-2-yl)propyl ether], under setting [5], the inhibition at 1 µM was found to be 52.4% and the inhibition at 10 µM worked out at 94.4%.

Regarding `COC1=CC(=O)C(OC)=C(COCC2=C(OC)C(=O)C=C(OC)C2=O)C1=O` [Test Compound No. 26, Bis[(3,6-Dimethoxy-1,4-benzoquinon-2-yl)methyl] ether], the inhibition at 3 µM under setting [3] was 10.9%. In addition, the inhibition at 30 µM under setting [4] came out at 39.8%.

On to `COC1=CC(=O)C(OC)=C(CCCC2=C(OC)C(=O)C=C(OC)C2=O)C1=O` [Test Compound No. 27, 2,2'-Trimethylenebis(3,6-dimethoxy-1,4-benzoquinone)], for which, under setting [5], the inhibition at 1 µM is 14.9% and the inhibition at 10 µM is 83.3%.

Consider `COC1=CC(=O)C(OC)=C(CCCSSCCCC2=C(OC)C(=O)C=C(OC)C2=O)C1=O` [Test Compound No. 28, Bis[(3,6-dimethoxy-1,4-benzoquinon-2-yl)propyl] disulfide], for which, under setting [5], the inhibition at 1 µM came out at 30.5% and the inhibition at 10 µM turned out to be 85.2%.

As to `COC1=CC(=O)C(OC)=C(CCCCCSCCCCCC2=C(OC)C(=O)C=C(OC)C2=O)C1=O` [Test Compound No. 29, Bis[(3,6-dimethoxy-1,4-benzoquinon-2-yl)-pentyl]sulfide], under setting [5], the inhibition at 1 µM came to 19.6% and the inhibition at 10 µM was 60.5%.

As for `CCCCC#CCCCC1=C(OC)C(=O)C=C(OC)C1=O` [Test Compound No. 35, 2,5-Dimethoxy-3-(4-nonynyl)-1,4-benzoquinone], the inhibition at 3 µM under setting [3] worked out at 64.9%. Besides, the inhibition at 30 µM under setting [4] turned out to be 96%.

For `COCOc1cc(OC)c(OCOC)c(CCCCCc2c(OC)c(OCOC)cc(OC)c2OCOC)c1OC` [Test Compound No. 36, 1,5-bis[1,4-Dimethoxy-2,5-bis(methoxymethoxy)-phen-3-yl]pentane], the inhibition at 3 µM under setting [3] was 12.1%. Besides, under setting [4], the inhibition at 30 µM was determined as 24.5%.

As for `COc1cc(OC(C)=O)c(OC)c(CCCCCc2c(OC)c(OC(C)=O)cc(OC)c2OC(C)=O)c1OC(C)=O` [Test Compound No. 37, 1,5-bis[1,4-Diacetoxy-2,5-(dimethoxy)phen-3-yl]-pentane], the inhibition at 3 µM under setting [3] worked out at 69.2%. For the same compound, the inhibition at 30 µM under setting [4] was 90%.

With `CCCCC1=C(OC)C(=O)C(CCCCCC2=C(OC)C(=O)C=C(OC)C2=O)=C(OC)C1=O` [Test Compound No. 38, 3-Butyl-2,5-dimethoxy-6-[5-(2,5-dimethoxy-1,4-benzoquinon-3-yl)pentyl]-1,4-benzoquinone], under setting [5], the inhibition at 1 µM is 25.1% and the inhibition at 10 µM stood at 38.2%.

With `CCCCC#CCCCC1=C(OC)C(=O)C(CCCCCC2=C(OC)C(=O)C=C(OC)C2=O)=C(OC)C1=O` [Test Compound No. 39, 2,5 Dimethoxy-3-(4-nonynyl)-6-[5-(2,5-dimethoxy-1,4-benzoquinon-3-yl)pentyl]-1,4-benzoquinone], under setting [5], the inhibition at 1 µM amounted to 0% and the inhibition at 10 µM turned out to be 11%.

`COC1=CC(=O)C(OC)=C(CCCCCC2=C(OC)C(=O)C(CCO)=C(OC)C2=O)C1=O` [Test Compound No. 40, 2,5-Dimethoxy-3-(2-hydroxyethyl)-6-[5-(2,5-dimethoxy-1,4-benzoquinon-3-yl)pentyl]-1,4-benzoquinone]: under setting [5], the inhibition at 1 µM is 38.2% and the inhibition at 10 µM is 91.7%.

`COC1=CC(=O)C(OC)=C(CCCCCC2=C(OC)C(=O)C(CCCCCC3=C(OC)C(=O)C=C(OC)C3=O)=C(OC)C2=O)C1=O` [Test Compound No. 41, 2,5-Dimethoxy-3,6-bis[5-(2,5-dimethoxy-1,4-benzoquinon-3-yl)-entyl]-1,4-benzoquinone]: under setting [5], the inhibition at 1 µM worked out at 4.1% and the inhibition at 10 µM was found to be 25%.

`COC1=CC(=O)C(OC)=C(OCCCOC2=C(OC)C(=O)C=C(OC)C2=O)C1=O` [Test Compound No. 42, 2,2'-Trimethylenedioxybis(3,6-dimethoxy-1,4-benzoquinone)]: under setting [5], the inhibition at 1 µM turned out to be 28.4% and the inhibition at 10 µM is 80%.

With `COC1=CC(=O)C(OC)=C(CCCCCC2=C(OC)C(=O)C(SC)=C(OC)C2=O)C1=O` [Test Compound No. 43, 1-(2,5-Dimethoxy-1,4-benzoquinon-3-yl)-5-(2,5-dimethoxy-3-methylthio-1,4-benzoquinon-6-yl)pentane], under setting [5], the inhibition at 1 µM stood at 23.2% and the inhibition at 10 µM worked out at 79.4%.

Regarding `CCOC(=O)C1=C(OC)C(=O)C(CCCCCC2=C(OC)C(=O)C=C(OC)C2=O)=C(OC)C1=O` [Test Compound No. 44, 1-(2,5-Dimethoxy-1,4-benzoquinon-3-yl)-5-(2,5-dimethoxy-3-ethoxycarbonyl-1,4-benzoquinon-6-yl)pentane], under setting [5], the inhibition at 1 µM is -10.5% and the inhibition at 10 µM was found to be 18.6%.

Turning to `COC1=C(CCCCCC2=C(OC)C(=O)C(SC)=C(OC)C2=O)C(=O)C(OC)=C(SC)C1=O` [Test Compound No. 45, 2,2'-Pentamethylenebis(3,6-dimethoxy-5-methylthio-1,4-benzoquinone)], under setting [5], the inhibition at 1 µM is 28.1% and the inhibition at 10 µM was 50.7%.

Regarding `CCOC(=O)C1=C(OC)C(=O)C(CCCCCC2=C(OC)C(=O)C(C(=O)OCC)=C(OC)C2=O)=C(OC)C1=O` [Test Compound No. 46, 2,2'-Pentamethylenebis(3,6-dimethoxy-5-ethoxycarbonyl-1,4-benzoquinone)], under setting [5], the inhibition at 1 µM is 18.2% and the inhibition at 10 µM came out at 16.2%.

Take `CCCCC1=C(OC)C(=O)C(CCCCCC2=C(OC)C(=O)C(CCO)=C(OC)C2=O)=C(OC)C1=O` [Test Compound No. 47, 1-(2,5-Dimethoxy-3-butyl-1,4-benzoquinon-6-yl)-[2,5-dimethoxy-3-(2-hydroxyethyl)-1,4-benzoquinon-6-yl]pentane]: under setting [5], the inhibition at 1 µM was determined as 15.8% and the inhibition at 10 µM came out at 47.6%.

For the compound `COC1=C(CCO)C(=O)C(OC)=C(CCCCCC2=C(OC)C(=O)C(OC)=C(OC)C2=O)C1=O` [Test Compound No. 48, 1-(2,3,5-Trimethoxy-1,4-benzoquinon-6-yl)-5-[2,5-dimethoxy-3-(2-hydroxyethyl)-1,4-benzoquinon-6-yl]pentane], under setting [5], the inhibition at 1 µM turned out to be 37.6% and the inhibition at 10 µM was found to be 89.4%.

For `COC1=C(CCO)C(=O)C(OC)=C(CCCCCC2=C(OC)C(=O)C(SC)=C(OC)C2=O)C1=O` [Test Compound No. 49, 1-(2,5-Dimethoxy-3-methylthio-1,4-benzoquinon-6-yl)-5-[2,5-dimethoxy-3-(2-hydroxyethyl)-1,4-benzoquinon-6-yl]pentane], under setting [5], the inhibition at 1 µM is -0.4% and the inhibition at 10 µM is 65.2%.
